Numbering of substitutions follows the chain as printed. Like-named read-outs stand apart in the source and are kept apart here. Ends that are not written are not given here.
Assays:
Assay in all cases: biochemical
HLA-DR DRB1*12:01 = HLA-DR DRB1*12:01 (Homo sapiens, UniProt P01903+P01911, A100R/A169T/D57E/D86V/F55L/H45Y/K41T/L162R/M171V/P40S/Q125H/Q178H/Q39Y/Q99D/R42G/S66L/T262R/V114A/V67L/W38E/Y59H/Y61H/Y89S); format: binding
HLA-DR DRB3*01:01 = HLA-DR DRB3*01:01 (Homo sapiens, UniProt P01903+P79483); format: binding
HLA-DR DRB1*01:01 = HLA-DR DRB1*01:01 (Homo sapiens, UniProt P01903+P01911, A100R/D57E/F55L/F60I/F76Y/I96L/L162R/M171V/P40L/Q125E/R42F/V115G/Y59C); format: binding
HLA-DR DRB1*15:01 = HLA-DR DRB1*15:01 (Homo sapiens, UniProt P01903+P01911); format: binding
HLA-DR DRB3*02:02 = HLA-DR DRB3*02:02 (Homo sapiens, UniProt P01903+P79483, A212P/D57E/F66Y/L67A/R103Q/R218S/R40L/S89Y/T80R/V86D/Y55F/Y59H); format: binding
Chain of HLA-DR DRB3*02:02 (P01903 26-254 limits assumed): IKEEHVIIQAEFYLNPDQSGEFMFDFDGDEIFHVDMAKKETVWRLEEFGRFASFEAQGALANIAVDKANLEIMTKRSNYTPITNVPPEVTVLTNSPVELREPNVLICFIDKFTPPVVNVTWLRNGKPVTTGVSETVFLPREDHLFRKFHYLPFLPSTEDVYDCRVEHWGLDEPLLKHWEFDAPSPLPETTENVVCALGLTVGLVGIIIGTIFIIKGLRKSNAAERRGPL
Chain of HLA-DR DRB3*02:02 (P79483 30-266 R40L/Y55F/D57E/Y59H/F66Y/L67A/T80R/V86D/S89Y/R103Q/A212P/R218S limits assumed): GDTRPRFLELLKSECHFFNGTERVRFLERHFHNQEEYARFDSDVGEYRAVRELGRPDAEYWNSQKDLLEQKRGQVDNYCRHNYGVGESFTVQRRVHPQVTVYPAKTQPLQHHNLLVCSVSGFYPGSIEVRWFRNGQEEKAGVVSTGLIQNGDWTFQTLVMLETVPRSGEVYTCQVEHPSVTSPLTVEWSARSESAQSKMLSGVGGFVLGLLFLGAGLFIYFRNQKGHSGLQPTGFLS

[1] = molecular target: T1, HLA-DP DPA1*02:01/DPB1*14:01 (Homo sapiens, UniProt P04440+P20036, A65V/A84D/A85E/E86D/F191V/F38H/G113D/G114E/G40L/I94L/K142R/L158P/L37V/M105V/M116V/M62Q/P115A/Q81R/R125K/T114A/T199I/T259P); format: binding
T1 sequence (P20036 29-260 A42M/M62Q/Q81R/T114A/K142R/L158P/F191V/T259P): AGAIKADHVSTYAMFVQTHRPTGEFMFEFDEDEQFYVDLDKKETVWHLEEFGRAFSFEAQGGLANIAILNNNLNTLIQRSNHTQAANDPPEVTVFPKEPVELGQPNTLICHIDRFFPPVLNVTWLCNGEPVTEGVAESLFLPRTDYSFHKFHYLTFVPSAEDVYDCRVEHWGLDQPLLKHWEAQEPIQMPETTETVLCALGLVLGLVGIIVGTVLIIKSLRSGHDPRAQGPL
T1 sequence (P04440 30-258 L37V/F38H/G40L/A65V/A84D/A85E/E86D/I94L/M105V/G113D/G114E/P115A/M116V/R125K/T199I/R223Q): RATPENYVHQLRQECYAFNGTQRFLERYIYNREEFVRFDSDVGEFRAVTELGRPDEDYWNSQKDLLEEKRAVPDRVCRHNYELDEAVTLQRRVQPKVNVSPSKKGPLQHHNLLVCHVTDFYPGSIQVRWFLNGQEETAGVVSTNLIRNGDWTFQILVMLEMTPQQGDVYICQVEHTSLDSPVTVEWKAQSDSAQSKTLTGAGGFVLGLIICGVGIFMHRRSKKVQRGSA

HLA-DR DRB1*09:01 = HLA-DR DRB1*09:01 (Homo sapiens, UniProt P01903+P01911, A100R/A103E/D57H/D86V/F55Y/F60I/F76Y/I96F/K127E/L162R/M171V/P40D/Q125H/Q99R/R33Q/R42F/S133A/S66N/T210M/V115G/W38K/Y107V/Y59G/Y89S); format: binding
[2] = molecular target: HLA-DP DPA1*03:01/DPB1*04:02 (Homo sapiens, UniProt P04440+P20036, A42M/A65V/A84D/A85E/L207M/L97S)
Chain of HLA-DP DPA1*03:01/DPB1*04:02 (P04440 whole entry A65V/A84D/A85E/L207M): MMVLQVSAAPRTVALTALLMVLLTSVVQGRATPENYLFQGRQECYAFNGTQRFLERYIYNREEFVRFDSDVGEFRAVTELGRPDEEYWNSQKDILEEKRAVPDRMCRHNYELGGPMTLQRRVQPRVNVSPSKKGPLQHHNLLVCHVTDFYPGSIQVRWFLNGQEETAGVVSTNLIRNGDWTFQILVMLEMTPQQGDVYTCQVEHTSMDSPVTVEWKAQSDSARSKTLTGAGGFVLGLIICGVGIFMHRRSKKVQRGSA
Chain of HLA-DP DPA1*03:01/DPB1*04:02 (P20036 whole entry A42M/L97S): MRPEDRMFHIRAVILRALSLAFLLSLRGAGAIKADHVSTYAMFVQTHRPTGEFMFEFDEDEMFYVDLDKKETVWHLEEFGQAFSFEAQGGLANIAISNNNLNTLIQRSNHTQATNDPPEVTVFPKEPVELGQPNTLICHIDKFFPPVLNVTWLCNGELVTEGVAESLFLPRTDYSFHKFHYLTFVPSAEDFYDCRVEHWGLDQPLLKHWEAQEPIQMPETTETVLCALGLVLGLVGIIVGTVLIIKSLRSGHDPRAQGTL
HLA-DR DRB1*07:01 = HLA-DR DRB1*07:01 (Homo sapiens, UniProt P01903+P01911, A100R/A102G/A103Q/D57E/D86V/E43K/F76Y/K127E/L162R/M171V/P40G/Q125H/Q99D/R33Q/R42Y/R54Q/S133A/S66F/T210M/V115G/Y107V/Y59L/Y89S); format: binding
HLA-DR DRB1*10:01 = HLA-DR DRB1*10:01 (Homo sapiens, UniProt P01903+P01911, A100R/A169T/D57E/F55L/F60V/F69Y/F76Y/I96L/L162R/M171V/P40V/Q260P/Q39E/Q99R/R195Q/R42F/S149N/S66Y/T210M/V115G/V67A/W38E/Y59R/Y61H); format: binding; conditions: read-out: Binding capacity/IC50 (nM) DRB1*10:01
[3] = molecular target: T2, HLA-DP DPA1*01:03/DPB1*04:01 (Homo sapiens, UniProt P04440+P20036); format: binding
T2 sequence (P20036 29-260): T1 sequence (P20036 29-260 A42M/M62Q/Q81R/T114A/K142R/L158P/F191V/T259P) with M14A, Q34M, R53Q, A86T, R114K, P130L, V163F, P231T
T2 sequence (P04440 30-258): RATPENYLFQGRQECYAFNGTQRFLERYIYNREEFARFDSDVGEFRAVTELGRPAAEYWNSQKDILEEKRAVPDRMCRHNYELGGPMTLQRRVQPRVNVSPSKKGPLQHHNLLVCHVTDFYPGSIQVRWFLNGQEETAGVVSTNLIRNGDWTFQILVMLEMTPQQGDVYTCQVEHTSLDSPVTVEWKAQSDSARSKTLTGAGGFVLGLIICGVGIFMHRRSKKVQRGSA

HLA-DR DRB1*03:01 = HLA-DR DRB1*03:01 (Homo sapiens, UniProt P01903+P01911, A100K/A102G/A103R/A169T/F55Y/I96L/K41T/L162R/M171V/P40S/Q125H/Q178H/Q39Y/R42S/S66N/T106N/T262R/W38E/Y61H); format: binding
Chain of HLA-DR DRB1*03:01 (P01903 26-254 limits assumed, other chains not shown): as the sequence (P01903 26-254 limits assumed) above

[4] = read-out: Binding capacity/IC50 (nM) DRB1*12:01
[5] = read-out: Binding capacity/IC50 (nM) DRB1*01:01
[6] = read-out: Binding capacity/IC50 (nM) DRB1*15:01
[7] = read-out: Binding capacity/IC50 (nM) DRB1*09:01
[8] = read-out: Binding capacity/IC50 (nM) DRB1*07:01
[9] = read-out: Binding capacity/IC50 (nM) DRB1*03:01
[10] = read-out: Binding capacity/IC50 (nM) DRB3*02:02
[11] = read-out: Binding capacity/IC50 (nM) DPA1*01:03 DPB1*04:01
[12] = read-out: Binding capacity/IC50 (nM) DRB3*01:01
[13] = read-out: Binding capacity/IC50 (nM) DPA1*02:01 DPB1*14:01

| Compound | IC50 (HLA-DR DRB1*12:01; [4]) [nM] | IC50 (HLA-DR DRB3*01:01) [nM] | IC50 (HLA-DR DRB1*01:01; [5]) [nM] | IC50 (HLA-DR DRB1*15:01; [6]) [nM] | IC50 (HLA-DR DRB3*02:02) [nM] | IC50 [1] [nM] | IC50 (HLA-DR DRB1*09:01; [7]) [nM] | IC50 [2] [nM] | IC50 (HLA-DR DRB1*07:01; [8]) [nM] | IC50 (HLA-DR DRB1*10:01) [nM] | IC50 [3] [nM] | IC50 (HLA-DR DRB1*03:01; [9]) [nM] | IC50 (HLA-DR DRB3*02:02; [10]) [nM] | IC50 [3, 11] [nM] | IC50 (HLA-DR DRB3*01:01; [12]) [nM] | IC50 [1, 13] [nM] | also measured |
| --- | --- | --- | --- | --- | --- | --- | --- | --- | --- | --- | --- | --- | --- | --- | --- | --- | --- |
| CC[C@H](C)[C@H](NC(=O)[C@@H]1CCCN1C(=O)[C@H](CCC(=O)O)NC(=O)[C@@H](N)CCCCN)C(=O)N[C@H](C(=O)NCC(=O)N[C@@H](C)C(=O)N[C@@H](CCC(=O)O)C(=O)N[C@H](C(=O)N[C@@H](Cc1ccccc1)C(=O)N[C@@H](Cc1ccc(O)cc1)C(=O)N[C@H](C(=O)N[C@@H](CC(=O)O)C(=O)NCC(=O)N[C@@H](C)C(N)=O)C(C)C)[C@@H](C)O)C(C)C [RT(431-445)] | 293 | 13 | 5.1 | 230 | 611 | 1350 | 23 | 132 | 75 | 4.4 | 4660 | – | – | – | – | – | – |
| CC[C@H](C)[C@H](NC(=O)CNC(=O)[C@H](CCCCN)NC(=O)[C@H](Cc1c[nH]cn1)NC(=O)[C@H](C)NC(=O)[C@@H]1CCCN1C(=O)[C@@H](NC(=O)[C@H](Cc1c[nH]c2ccccc12)NC(=O)[C@H](CO)NC(=O)[C@H](CC(C)C)NC(=O)[C@H](Cc1ccc(O)cc1)NC(=O)[C@@H](NC(=O)[C@H](CCCCN)NC(=O)[C@H](CCC(=O)O)NC(=O)[C@@H](N)CCCCN)C(C)C)C(C)C)C(=O)NCC(=O)NCC(=O)N[C@@H](CC(N)=O)C(=O)N[C@@H](CCC(=O)O)C(N)=O [RT(528-546)] | 2100 | 576 | 16 | – | – | 4850 | 33 | 150 | 6.3 | – | – | 612 | 82 | 1390 | – | – | IC50 (HLA-DR DRB1*15:01): 97 nM |
| DEELLKAVRIIKILYQSNP-NH2 [rev(9-27)] | 66 | – | 7.4 | – | – | – | 124 | 5.8 | 41 | 3.9 | 637 | 632 | 4.4 | – | 978 | 710 | – |
| IRYPLTFGWCFKLVPVDPREVEEA-NH2 [nef(133-156)] | 4430 | – | 315 | – | – | – | 360 | 670 | 472 | – | – | 704 | > 30000 | 44 | 3440 | 15900 | IC50 (HLA-DR DRB1*15:01): 718 nM |
| IVALIIAIVVWTIV-NH2 [vpu(13-26)] | 12700 | – | 261 | 2030 | > 30000 | – | 6640 | 1300 | > 30000 | 1780 | – | > 30000 | – | > 30000 | – | > 30000 | – |
| LNKIVRMYSPVSILDI-NH2 [p24(138-153)] | – | – | – | – | – | – | 36 | 1 | – | 6.6 | 47 | – | – | – | – | 16 | – |
| NYPIVQNLQGQMVHQAISPR-NH2 [p17(131-132)/p24(1-18)] | 940 | 517 | 4.4 | 211 | – | – | 248 | 484 | 5420 | 59 | – | – | 2880 | 1550 | – | 2990 | – |
| VGSLQYLALTALITPKK-NH2 [vif(142-158)] | – | – | – | 3.8 | 577 | 71 | – | 1.5 | – | – | – | – | – | 33 | 942 | – | IC50 (HLA-DR DRB1*12:01): 1670 nM; IC50 (HLA-DR DRB1*01:01): 0.35 nM; IC50 (HLA-DR DRB1*03:01): 4510 nM; IC50 (HLA-DR DRB1*09:01): 64 nM; IC50 (HLA-DR DRB1*07:01): 4.1 nM |
| YAKMRSAHTNDVKQL-NH2 [RT(354-368)] | 4840 | – | – | 773 | – | 919 | 66 | 6960 | 120 | 16 | – | 7100 | 2850 | 3550 | – | – | – |
